Source: US9771430B2, “Method of treating a metabolic disorder induced by obesity in a subject in need thereof by administering MK2/3 inhibitors” (THE TRUSTEES OF COLUMBIA UNIVERSITY IN THE CITY OF NEW YORK, priority 2011, dated 2017)

Tests used:
[1] = test system: IP3R; test: IICR in freshly isolated peritoneal cavity macrophages of Xestospongin C-treated ob/ob mice; format: in vivo, mouse; conditions: treatment of ob/ob mice
From the text: FIGS. 50A-M. The role of IP3R in obesity/insulin resistance induced hyperglycemia and gluconeogenesis. FIG. 50A. Evidence that Xestospongin C Treatment of ob/ob Mice Inhibits IP3R Assay of IICR in Freshly Isolated Peritoneal Cavity Macrophages. FIG. 50B-E. Inhibition of IP3R Reduces Fasting Blood Glucose Levels in ob/ob Mice. FIG. 50F. Inhibition of IP3R Reduces Hepatic Expression of PEPCK, G6Pase, and PGC1α in ob/ob. FIG. 50G-I. Inhibition of IP3R Reduces Expression of PEPCK, G6Pase, and PGC1α in Palmitate-Treated Hepatocytes as a Model of ER Stress and Insulin Resistance. FIG. 50J-K. Inhibition of IP3R Reduces Expression of G6Pase and PEPCK in Akt-Inhibited Hepatocytes as a Model of Insulin Resistance. FIG. 50L. IP3R Activity is Required for Forskolin-Induced TORC2 Dephosphorylation. FIG. 50M. IP3R Activation is Required for TORC2 Nuclear Retention.

[2] = test system: G6pc and Pck1 mRNA; test: G6pc and Pck1 mRNA (RT-qPCR) in primary mouse hepatocytes; format: cell-based; conditions: glucagon / forskolin
Description: FIG. 32A-E. Related to FIG. 26—p38. FIG. 32A Mice were fed ad libitum or fasted for 12 h. Liver phospho-p38, total p38, p-MK2, total MK-2, and β-actin were assayed by immunoblot. FIG. 32B WT HCs were serum-depleted overnight and then incubated for 5 h with 100 nm glucagon in serum-free media with or without SB202190; or glucagon was added to HCs from P38a^fl/fl mice treated with adeno-LacZ (control) or adeno-Cre. RNA was assayed for G6pc and Pck1 mRNA (*P<0.05; mean±S.E.M.). FIG. 32C HCs from fasting WT and Camk2g^−/− mice were assayed for p-p38, total p38, and β-actin. FIG. 32D WT mice were injected i.p. with 12.5 mg kg^−1 body weight of p38 inhibitor (SB202190) or vehicle control. 12 h later, the mice were injected with an additional dose of SB202190 and fasted overnight. The livers were assayed for nuclear FoxO1, nucleophosmin, p-MK2, total MK-2, and β-actin. The correlation between nuclear FoxO1 and p-MK2 band intensities is shown in the graph. FIG. 32E Adeno-GFP-FoxO1-transduced HCs were serum-depleted overnight, and then incubated for 5 h in serum-free media with SB202190 or vehicle (Veh) control. FoxO1 localization was assessed by indirect immunofluorescence (Bar, 10 μm; *P<0.05; mean±S.E.M.).
FIGS. 53A-B. MK-2 regulates hepatic FoxO1 subcellular localization and hepatic G6Pc and Pck1. FIG. 53A. Adeno-GFP-FoxO1-transduced HCs were serum-depleted overnight, and then incubated for 30 min in serum-free media with 2 uM MK-2 inhibitor or vehicle (Veh) control. FoxO1 localization was assessed by indirect immunofluorescence (Bar, […]; *P<0.005; mean±S.E.M.). FIG. 53B WT HCs were serum-depleted overnight and then incubated for 5 h with 100 nm glucagon in serum-free media with or without MK-2 inhibitor. RNA was assayed for G6pc and Pck1 mRNA (*P<0.005; mean±S.E.M.). MK-2 Inhibitor is from Calbiochem (cat#475864): 2-(2-Quinolin-3-ylpyridin-4-yl)-1,5,6,7-tetrahydro-4H-pyrrolo-[3,2-c]pyridin-4-one.
FIG. 69. MK-2 inhibitor suppresses forskolin-induced Pck1 and G6Pc induction in primary hepatocytes. Primary hepatocytes from WT mice were serum-depleted overnight and then pre-treated with 300 nM MK-2 inhibitor (compound 28) or vehicle for 1 h. Cells were then treated with 2 μM forskolin in serum-free media with or without the inhibitor for 4 h. RNA was assayed for G6pc and Pck1 mRNA by RT-qPCR. *, P<0.0001.
Primary mouse HCs were isolated from 8- to 12-week-old mice as described previously (Matsumoto et al., 2002). For most experiments, the HCs were serum-depleted overnight by incubation in medium containing 0.5% fetal calf serum and were then incubated for 5 h in serum-free media, with individual treatments noted in the figure legends. HCs were transduced with adenoviral constructs 12 h after plating, and experiments were conducted 24 h after transduction. Transfections with WT, 7A- and 9A-Foxo1 were carried out using jetPEI™-hepatocyte DNA transfection reagent (Polyplus-transfection, Inc.) according to manufacturer's instructions.
Immunoblot and RT-qPCR assays were performed as previously described (Timmins et al., 2009). Total RNA was extracted from HCs using the RNeasy kit (Qiagen). cDNA was synthesized from 2 μg total RNA using oligo (dT) and Superscript II (Invitrogen). Nuclear extraction from liver was performed using the Nuclear Extraction Kit from Panomics according to the manufacturer's instructions. […] Whether their origin is alternative splicing or post-translational modification remains to be determined.

[3] = Fasting glucose in C57BL/6J mice treated with Xestospongin C; format: in vivo, mouse
From the text: FIGS. 49A-S. The role of IP3R in forskolin/glucagon-induced G6Pase/PEPCK in cultured hepatocytes and in fasting blood glucose in vivo. FIG. 49 A,B. FSK-Induced G6Pase and PEPCK is Calcium-Dependent. FIG. 49C-D. IP3R Activity is Required for Forskolin- and Glucagon-Induced G6Pase and PEPCK (FAO rat hepatocyte cell line). FIG. 49E-F. IP3R Activity is Required for Forskolin-Induced G6Pase and PEPCK (primary murine hepatocytes). FIG. 49G-H. IP3R1 Anti-Sense Oligonucleotide Suppresses Forskolin-Induced G6Pase and PEPCK (primary murine hepatocytes). FIG. 49I. Forskolin Activates IP3R Activity in FAO Hepatocytes (Inositol/ATP-Induced Calcium Release Assay). FIG. 49J. The PKA Inhibitor H89 Suppresses Forskolin-Induced IP3R Activation. FIG. 49K-L. IP3R Activity is Required for Forskolin-Induced PGC1a. FIG. 49M-N. Calcineurin Inhibitory Peptide Suppresses Forskolin-Induced G6Pase and PEPCK. FIG. 49O. IP3R Activity is Required for Forskolin-Induced Calcineurin Activation. FIG. 49P-Q. IP3R Activity is Required for Forskolin-Induced TORC2 Dephosphorylation and Nuclear Localization. FIG. 49R. TORC2 Transduction Partially Restores Forskolin-Induced G6Pase in IP3R-Inhibited Hepatocytes. FIG. 49S. Xestospongin C Treatment Reduces Fasting Glucose Levels in C57BL/6J Mice.

For `C1CCC[C@H]2CCCN3CC[C@@H](CCCCCC[C@@H]4CCCN5CC[C@@H](CC1)O[C@@H]45)O[C@@H]23` [Xestospongin C], the “IP3R (IICR) in peritoneal cavity macrophages” value [1] was “Inhibits”, the “induction of the gluconeogenic program” value [2] was “blocked” and the “Fasting Glucose Levels” value [3] was “Reduces”.
